Source: paper PMC10304470, “Characterization of the Antimicrobial Activities of Trichoplusia ni Cecropin A as a High-Potency Therapeutic against Colistin-Resistant Escherichia coli” (Pharmaceutics, 2023)
Peptide text beside a SMILES is read from it.

Columns and labels:
E. coli (KCTC 1682) = assay type: cell-based, Escherichia coli; details: KCTC 1682, 16 h
Text: (§1) E. coli (KCTC 1682) was obtained from the Korean Collection for Type Cultures (KCTC, Jeongeup, Republic of Korea), and Acinetobacter baumannii (KCCM 40203) and Pseudomonas aeruginosa (KCCM 11328) from the Korea Culture Center of Microorganisms (KCCM, Seoul, Republic of Korea). Klebsiella pneumoniae (NCCP 16054), colistin-resistant E. coli NMA 1557 (ColREC 1557), NMS 12 (ColREC 12), and colistin-resistant A. baumannii NMS 1915 (ColRAB 1915), as well as colistin-resistant K. pneumoniae NMS 139 (ColRKP 139), were obtained from the National Institute of Health Multidrug Resistant Bacteria Specialized Pathogen Resources Bank (Osong, Republic of Korea).
(§2) The antibacterial abilities of the peptides (T. ni cecropin, cecropin A, polymyxin B, colistin, and melittin) were determined using the broth dilution method as previously reported. The peptides dissolved at 10 mg/mL in deionized water were serially diluted from 64 μM to 0.5 μM in 96-well plates using Mueller–Hinton (MH) broth, and bacteria cultured to exponential growth were added at 2 × 10^5 cells/mL. The group of bacteria that grew untreated in the broth was set as the positive control, and the uninoculated broth as the negative control. Dissolved peptides are colorless and equal to the OD value of the medium only. After 16 h incubation at 37 °C, the absorbance at 600 nm was measured using a SpectraMAX microplate reader (Molecular Devices, San Jose, CA, USA).

[1] = tested on: colistin-resistant E. coli NMA 1557 (ColREC 1557); assay type: cell-based, Escherichia coli; details: MH broth, 2 × 10^5 cells/mL, 16 h, 37 °C, OD600, >95% killing
Text: as §1, §2

[2] = tested on: colistin-resistant E. coli NMS 12 (ColREC 12); assay type: cell-based, Escherichia coli; details: MH broth, 2 × 10^5 cells/mL, 16 h, 37 °C, OD600, >95% killing
Text: as §1, §2

[3] = tested on: Acinetobacter baumannii (KCCM 40203); assay type: cell-based; details: KCCM 40203, 16 h
Text: as §1, §2

[4] = tested on: Klebsiella pneumoniae (NCCP 16054); assay type: cell-based; details: NCCP 16054, 16 h
Text: as §1, §2

[5] = tested on: Pseudomonas aeruginosa (KCCM 11328); assay type: cell-based; details: KCCM 11328, 16 h
Text: as §1, §2

[6] = tested on: colistin-resistant K. pneumoniae NMS 139 (ColRKP 139); assay type: cell-based, Klebsiella pneumoniae; details: MH broth, 2 × 10^5 cells/mL, 16 h, 37 °C, OD600, >95% killing
Text: as §1, §2

all bacterial strains = assay: Average MIC over all strains and relative selective index; assay type: cell-based; details: 8 strains; MIC above 64 μM taken as 128 μM
Description: as §2

[7] = tested on: sheep red blood cells (sRBCs); assay: Hemolysis; assay type: cell-based; details: 100 μM peptide, 1 h, 37 °C
Description: Sheep red blood cells (sRBCs; KisanBio, Seoul, Republic of Korea) were added to three volumes of phosphate-buffered saline (PBS; 35 mM phosphate buffer containing 150 mM NaCl, pH 7.4) and centrifuged five times at 4 °C, 1000× g for 5 min, followed by a final suspension in PBS at 4% (w/v). Peptides serially diluted from 100 μM to 3.1 μM in PBS at 100 μL in a 96-well plate were prepared, and an equal volume of blood solution was added. After incubation at 37 °C for 1 h, the plates were centrifuged for 5 min at 4 °C, 1000× g. The absorbance of the supernatant was measured at 405 nm. The 100% hemolysis control was 0.1% Triton-X 100 added to the blood solution; the negative control was blood solution added to PBS.

L-929 cells = assay: Cytotoxicity, WST-8; assay type: cell-based, mouse; details: up to 100 μM peptide, 24 h
Description: (§3) Murine macrophage RAW 264.7 cells and mouse fibroblast L-929 cells were used for research and were purchased from the Korea Cell Line Bank (Seoul, Republic of Korea). Both cells were cultured in Dulbecco’s Modified Eagle’s Medium (DMEM; Welgene, Gyeongsan, Republic of Korea) supplemented with 10% fetal bovine serum and 1% antibiotics (penicillin/streptomycin) at 37 °C in the presence of 5% CO2. To measure the cytotoxicities of peptides against RAW 264.7 cells and L-929 cells, both cell lines were seeded at a density of 1 × 10^5 cells/well in a 96-well plate, to which each concentration of peptide solution (from 1.6 μM to 100 μM) was added, followed by incubation for 22 h. Subsequently, WST-8 (Biomax Co., Ltd., Guri, Republic of Korea) was added at 10% volume of the final solution, and the mixture was incubated for an additional 2 h. Absorbance was measured at 450 nm. Percentages were calculated based on untreated cells.

RAW 264.7 cells = assay: Cytotoxicity, WST-8; assay type: cell-based, mouse; details: 100 μM peptide, 24 h
Description: as §3

[8] = tested on: LPS-stimulated RAW 264.7 cells; assay: Nitrite (NO) production in LPS-stimulated macrophages, Griess; assay type: cell-based, mouse; details: 5 μM peptide, 1 h pretreatment, 20 ng/mL LPS, 16 h
Description: (§4) Murine macrophage RAW 264.7 cells were used to measure the anti-inflammatory activities of peptides. Culture plates (96-well) were seeded at a density of 1 × 10^5 cells/well and stimulated with 20 ng/mL LPS (O111:B4; Sigma-Aldrich) for 16 h after 1 h pretreatment with each concentration of peptide (0.6 to 10 μM). The control is an untreated cell. The culture supernatant was added to an equal volume of Griess reagent (Sigma-Aldrich), and the absorbance was measured at 540 nm. Nitrite production was quantified using a standard curve constructed using NaNO2.

[9] = tested on: LPS-stimulated RAW 264.7 cells; assay: IL-6 secretion in LPS-stimulated macrophages, ELISA; assay type: cell-based, mouse; details: 5 μM peptide, 1 h pretreatment, 20 ng/mL LPS, 16 h
Description: as §4
Interleukin-6 (IL-6)-specific enzyme-linked immunosorbent assays (ELISA; R&D Systems, Minneapolis, MN, USA) were performed according to the method specified by the manufacturer. Briefly, cell culture supernatants were added to immune plates treated with the capture antibody, followed by the detection antibody and streptavidin-horseradish peroxidase. For each step, the plates were washed twice with PBS containing 0.05% Tween 20. The plates were incubated with tetramethylbenzidine substrate (Invitrogen, Carlsbad, CA, USA), and the reaction was stopped with 2 N H2SO4 to measure absorbance at 450 nm. A standard graph of each marker was plotted and quantified.

CC[C@H](C)CCCCC(=O)N[C@@H](CCN)C(=O)N[C@H](C(=O)N[C@@H](CCN)C(=O)N[C@H]1CCNC(=O)[C@H]([C@@H](C)O)NC(=O)[C@H](CCN)NC(=O)[C@H](CCN)NC(=O)[C@H](CC(C)C)NC(=O)[C@@H](CC(C)C)NC(=O)[C@H](CCN)NC1=O)[C@@H](C)O [colistin] (HELM PEPTIDE1{[CC[C@H](C)CCCCC(=O)[*:2]].[Dab].T.[Dab].[Dab].[Dab].[dL].L.[Dab].[Dab].T}$PEPTIDE1,PEPTIDE1,5:R3-11:R2$$$V2.0; N-terminus assumed; bridges inferred)
Minimal Inhibitory Concentration (E. coli (KCTC 1682)): 0.25 µM
Minimal Inhibitory Concentration [1]: 8 µM
Minimal Inhibitory Concentration [2]: 4 µM
Minimal Inhibitory Concentration [3]: 0.25 µM
Minimal Inhibitory Concentration [4]: 0.25 µM
Minimal Inhibitory Concentration [5]: 1 µM
Minimal Inhibitory Concentration [6]: >64 µM
GM (geometric mean, average MIC value of all bacterial strains) (all bacterial strains): 33.72 µM
hemolytic activity [7]: no hemolytic activity
viability / survival rate (L-929 cells): 95.0%
cell viability (RAW 264.7 cells): 70.1%
inhibition of NO [8]: over 90%
inhibition of IL-6 secretion [9]: over 90%
